The target of one series is MTAN-D198N (Helicobacter pylori, UniProt Q9ZMY2, D198N). As to conditions: for affinity to MTAN-D198N / displacement of AdoHcy-TAMRA: displacement curves, FIG. 10B.
Series [1] concerns the target T1, calf intestinal alkaline phosphatase (CIAP) (Bos taurus, UniProt P19111). As to the kind of experiment: biochemical.
Experimental: (§1) Calf Intestinal Alkaline Phosphatase (CIAP) was obtained from New England Biolabs. […] Reactions were initiated by adding ATP at varying concentrations ranging from 0.1 to 20 μM. Due to the ability of ATP to act as an inhibitor of CIAP at high concentrations, steady-state analysis of the resulting data was fitted to a substrate-inhibition equation in Equation 8, below, using Prism 7.
In series [2] the target is T1, calf intestinal alkaline phosphatase (CIAP). As to conditions: read-out: Km of ATP for CIAP; competitive FP assay, 0.25 U/mL CIAP.
Experimental: as §1
Another series addresses CIAP (Bos taurus, UniProt P19111). As to conditions: molybdenum blue-based assay, previous work, cited from earlier work.
The next series addresses HpMTAN (Helicobacter pylori, UniProt Q9ZMY2). As to conditions: previously characterized; cited from earlier work.
Series [3] addresses Mycobacterium smegmatis EgtD (Mycolicibacterium smegmatis, UniProt A0R5M8). As to conditions: isothermal calorimetry, previously determined; cited from earlier work. In general terms: Isothermal titration calorimetry measures the heat released or taken up as one component is titrated into another.
The test system of series [4] is N[C@@H](Cc1c[nH]cn1)C(=O)O. Description: purified protein, by the assay type. As to conditions: pH 8.0; 25.0 °C.

These results are taken from US12018299B2, “Methods and kits for quantifying adenosine-containing molecules” (priority 2017, dated 2024).

Sequence of MTAN-D198N (Q9ZMY2 whole entry D198N): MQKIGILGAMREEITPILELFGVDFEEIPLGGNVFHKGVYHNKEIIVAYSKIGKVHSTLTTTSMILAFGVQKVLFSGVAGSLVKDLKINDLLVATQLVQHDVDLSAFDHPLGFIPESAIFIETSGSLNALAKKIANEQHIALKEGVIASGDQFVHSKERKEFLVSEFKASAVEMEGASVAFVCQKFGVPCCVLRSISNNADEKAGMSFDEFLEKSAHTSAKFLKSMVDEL
Sequence of CIAP (P19111 20-506): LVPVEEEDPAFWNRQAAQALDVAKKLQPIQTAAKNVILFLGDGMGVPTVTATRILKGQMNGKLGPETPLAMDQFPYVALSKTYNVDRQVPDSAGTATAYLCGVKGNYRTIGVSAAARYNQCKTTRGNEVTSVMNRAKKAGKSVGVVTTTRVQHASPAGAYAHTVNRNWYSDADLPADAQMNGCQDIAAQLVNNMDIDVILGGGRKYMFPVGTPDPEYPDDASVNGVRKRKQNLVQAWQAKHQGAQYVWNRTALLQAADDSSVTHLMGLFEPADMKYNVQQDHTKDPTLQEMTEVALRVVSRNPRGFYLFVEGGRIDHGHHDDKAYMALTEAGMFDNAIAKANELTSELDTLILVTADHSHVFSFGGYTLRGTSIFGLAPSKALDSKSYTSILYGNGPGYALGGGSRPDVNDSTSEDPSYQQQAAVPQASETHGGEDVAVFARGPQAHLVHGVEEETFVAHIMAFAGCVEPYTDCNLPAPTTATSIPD
T1 sequence (P19111 20-506): as above
Sequence of Mycobacterium smegmatis EgtD (A0R5M8 whole entry): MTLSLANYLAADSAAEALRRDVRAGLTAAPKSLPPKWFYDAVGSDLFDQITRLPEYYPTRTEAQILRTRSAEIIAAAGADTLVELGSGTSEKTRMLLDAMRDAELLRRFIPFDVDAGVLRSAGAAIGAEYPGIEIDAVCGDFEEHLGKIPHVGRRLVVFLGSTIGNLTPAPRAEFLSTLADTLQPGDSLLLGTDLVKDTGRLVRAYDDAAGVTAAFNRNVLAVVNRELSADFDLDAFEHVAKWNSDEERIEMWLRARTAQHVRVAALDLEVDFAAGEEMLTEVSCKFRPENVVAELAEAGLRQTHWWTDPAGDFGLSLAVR
Sequence of HpMTAN (Q9ZMY2 whole entry): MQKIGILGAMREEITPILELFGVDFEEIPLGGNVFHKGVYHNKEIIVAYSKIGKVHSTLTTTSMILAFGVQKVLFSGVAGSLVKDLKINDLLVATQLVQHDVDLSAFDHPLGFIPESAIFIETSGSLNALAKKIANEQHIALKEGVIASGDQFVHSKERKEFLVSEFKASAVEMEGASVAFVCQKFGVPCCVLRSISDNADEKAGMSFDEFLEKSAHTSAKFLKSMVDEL

As to `Nc1ncnc2c1ncn2[C@@H]1O[C@H](COP(=O)(O)OP(=O)(O)O)[C@@H](O)[C@H]1O` [ADP, adenosine diphosphate], the “affinity to MTAN-D198N / displacement of AdoHcy-TAMRA” value (“affinity to MTAN-D198N / displacement” below) on MTAN-D198N is reported as “M affinity”.

Consider `Nc1ncnc2c1ncn2[C@@H]1O[C@H](COP(=O)(O)O)[C@@H](O)[C@H]1O` [AMP, adenosine monophosphate], for which the “affinity to MTAN-D198N / displacement” value at MTAN-D198N was “M affinity”.

What is called Km is the concentration of substrate that gives half-maximal velocity. Consider `Nc1ncnc2c1ncn2[C@@H]1O[C@H](COP(=O)(O)OP(=O)(O)OP(=O)(O)O)[C@@H](O)[C@H]1O` [ATP, adenosine triphosphate], for which the values for the Ki (in series [1]; on CIAP (read-out: Ki for substrate inhibition of ATP (CIAP))) were 7.6 ± 1.8 µM and 19 µM, respectively. Further, the “affinity to MTAN-D198N / displacement” value on MTAN-D198N is listed as “unable to displace AdoHcy-TAMRA”. The Michaelis constant (Km) is 0.9 ± 0.2 µM in series [2] and 20.5 µM on CIAP (read-out: Km of ATP for CIAP).

`Nc1ncnc2c1ncn2[C@@H]1O[C@H](CSCC[C@H](N)C(=O)O)[C@@H](O)[C@H]1O` [AdoHcy, S-adenosylhomocysteine]: the “affinity with HpMTAN” value on HpMTAN is “low p M affinity”. Besides, the “limit of detection, amount” value on MTAN-D198N (50 μL reactions) is recorded as “about 0.3 pmol”.

One may read the Kd as the constant that tells how readily two partners part at equilibrium. As for `C[S+](CC[C@H](N)C(=O)O)C[C@H]1O[C@@H](n2cnc3c(N)ncnc32)[C@H](O)[C@@H]1O` (stereo partly drawn) [AdoMet, S-adenosyl methionine], the Kd in series [3] is 270 ± 20 µM.

In the case of `N[C@@H](Cc1c[nH]cn1)C(=O)O` [L-histidine], in series [3], the Kd is 290 ± 14 µM.

As for “EgtD (Mycobacterium tuberculosis CDC1551)”, the Km in series [4] came to 330 ± 35 µM.
